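How tested: cells in 96-well plates exposed to compound for 48 hours at five concentrations. GI50 marks 50% less growth. The concentration for full growth arrest is given as TGI.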
What was measured:
Assay in all cases: inhibition of tumour cell growth, NCI panel, 48 h
DMS 273 small cell lung = test system: DMS 273 small cell lung
M14 melanoma = test system: M14 melanoma
RXF-631 renal = test system: RXF-631 renal
DU-145 prostate = test system: DU-145 prostate
BT-549 breast = test system: BT-549 breast
MDA-N = test system: MDA-N

## CC1CC(c2ccc([N+](=O)[O-])cc2)=Nc2ccccc2S1=O (configuration not stated)
DMS 273 small cell lung
  TGI: 42.7 µM
M14 melanoma
  TGI: 35 µM
RXF-631 renal
  TGI: 52.6 µM

## Cc1ccc(C(=O)N/N=C(\N=Nc2ccccc2)c2ccc(N(CCC#N)CCC#N)cc2C)cc1
DU-145 prostate
  TGI: > 100 µM
M14 melanoma
  TGI: > 100 µM

## C/C=C1/C(=O)O[C@]23C=C[C@@H]4C(C(=O)OC)=CO[C@H](O[C@@H]12)[C@@H]43
DMS 273 small cell lung
  TGI: 39.9 µM

## COc1cc2c(cc1O)N=C[C@@H]1CCC(O)N1C2=O (mixture of isomers)
DMS 273 small cell lung
  TGI: 19.6 µM

## CC(CNc1nc(Nc2ccc(Cl)c(Cl)c2)nc(C(Cl)(Cl)Cl)n1)N(C)C (configuration not stated)
DU-145 prostate
  GI50: 1.99 µM
  TGI: 4.09 µM

## O=C1NC(=O)C2(CCc3ccc(N(CCCl)CCCl)cc32)N1 (configuration not stated)
DMS 273 small cell lung
  TGI: 16 µM

## CCc1ncc(C(C)(O)c2ccccc2)n1Cc1ccccc1 (configuration not stated)
BT-549 breast
  TGI: > 100 µM
DU-145 prostate
  TGI: > 100 µM
M14 melanoma
  TGI: 13 µM

## COc1ccc2oc3c(ccc[n+]3C)c(=O)c2c1
DU-145 prostate
  TGI: > 100 µM
M14 melanoma
  TGI: > 100 µM
MDA-N
  TGI: > 100 µM

## CC(=O)Nc1nc(C)c(-c2cc3c(c(S(C)(=O)=O)c2)C(=O)N([C@@H](C)C2CC2)C3)s1
BT-549 breast
  GI50: 29.1 µM
  TGI: > 100 µM
DU-145 prostate
  GI50: 29.5 µM
  TGI: > 100 µM
M14 melanoma
  GI50: 28 µM
  TGI: > 100 µM
